Read-outs that look alike come from different tables or passages of the source.
Assays:
Botrytis cinerea = Botrytis cinerea (grey mould), bean leaf disk assay, preventive; type: in vivo; conditions: foliar, 96 h, read-out: control of fungal infection, Botrytis cinerea
Septoria tritici = Septoria tritici (leaf blotch), liquid culture growth inhibition in nutrient broth; type: cell-based; conditions: Zymoseptoria tritici, read-out: control of fungal infection, Septoria tritici
Plasmopara viticola = Plasmopara viticola (downy mildew of grapevine), grapevine leaf disk assay, preventive; type: in vivo; conditions: foliar, 168 h, read-out: control of fungal infection, Plasmopara viticola
Pythium ultimum = Pythium ultimum (Damping off), liquid culture growth inhibition in potato dextrose broth; type: cell-based; conditions: Globisporangium ultimum, read-out: control of fungal infection, Pythium ultimum
Phytophthora infestans = assay: whole plant or invertebrate; type: in vivo; conditions: in Solanum lycopersicum, foliar, 96 h, read-out: control of fungal infection, Phytophthora infestans
Fusarium culmorum = Fusarium culmorum (root rot), liquid culture growth inhibition in nutrient broth; type: cell-based; conditions: PDB broth, 24 C, inhibition of growth determined photometrically after 48 hrs, read-out: control of fungal infection, Fusarium culmorum
How it was run: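 Fusarium culmorum conidia from cryogenic storage were mixed into potato dextrose broth and added to compound pre-dispensed from DMSO (diluted in 0.025% Tween20). Incubated at 24 C in the dark; growth inhibition read photometrically after 48 hrs.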

[1] = test system: Erysiphe graminis f.sp. tritici; assay: Erysiphe graminis f.sp. tritici (wheat powdery mildew), wheat leaf segment assay, preventive; type: in vivo; conditions: Blumeria graminis, foliar, 96 h, read-out: control of fungal infection, Etysiphe graminis f.sp. tritici
Septoria nodorum = Septoria nodorum (wheat glume blotch), wheat leaf segment assay, preventive; type: in vivo; conditions: Parastagonospora nodorum, foliar, 96 h, read-out: control of fungal infection, Septoria nodorum
[2] = test system: Puccinia recondita f.sp. tritici; assay: Puccinia recondita f.sp. tritici (wheat brown rust), wheat leaf segment assay, preventive; type: in vivo; conditions: foliar, 216 h, read-out: control of fungal infection, Puccinia recondite f.sp. tritici
[3] = 200 ppm, bean leaf disks, assessed four days after inoculation
[4] = 200 ppm, PDB broth, 24 C, inhibition of growth determined photometrically after 72 hrs
[5] = 200 ppm, grapevine leaf disks, assessed seven days after inoculation
[6] = 20 ppm, potato dextrose broth, 24° C., inhibition of growth determined photometrically after 48 hours
[7] = 200 ppm, wheat leaf segments, assessed four days after inoculation
[8] = 200 ppm, wheat leaf segments, assessed nine days after inoculation

Structure (SMILES) | melting point | pest or weed control at 200 ppm (Botrytis cinerea; [3]) | inhibition of growth at 200 ppm (Septoria tritici; [4]) | pest or weed control at 200 ppm (Plasmopara viticola; [5]) | inhibition of growth at 20 ppm (Pythium ultimum; [6]) | pest or weed control at 200 ppm (Phytophthora infestans) | inhibition of growth at 200 ppm (Fusarium culmorum) | pest or weed control at 200 ppm [1, 7] | pest or weed control at 200 ppm (Septoria nodorum) | pest or weed control at 200 ppm [2] | pest or weed control at 200 ppm (Botrytis cinerea) | pest or weed control at 200 ppm [1] | inhibition of growth at 20 ppm (Pythium ultimum; 48 h) | inhibition of growth at 200 ppm (Septoria tritici; 72 h) | pest or weed control at 200 ppm (Plasmopara viticola) | pest or weed control at 200 ppm (Septoria nodorum; [7]) | pest or weed control at 200 ppm [2, 8]
CON=CC(C)(C)NC(=O)C(Oc1cc(Cl)c2ccsc2c1)SC (centres unmarked) [Compound No. 81, 2-(4-Chloro-benzo[b]thiophen-6-yloxy)-N-(2-methoxyimino-1,1-dimethyl-ethyl)-2-methylsulfanyl-acetamide] | 120 to 122 °C | ≥ 60% | ≥ 60% | ≥ 60% | – | – | – | – | – | – | – | – | – | – | – | – | –
CON=CC(C)(C)NC(=O)C(Oc1ccc2ocnc2c1)SC (centres unmarked) [Compound No. 88, 2-(benzooxazol-5-yloxy)-N-(2-methoxyimino-1,1-dimethyl-ethyl)-2-methylsulfanyl-acetamide] | 95 to 96 °C | – | – | – | ≥ 60% | – | – | – | – | – | – | – | – | – | – | – | –
CON=CC(C)(C#N)NC(=O)C(Oc1cc(C)c2ncc(Br)cc2c1)SC (centres unmarked) [Compound No. 54, 2-(3-Bromo-8-methyl-quinolin-6-yloxy)-N-(1-cyano-2-methoxyimino-1-methyl-ethyl)-2-methylsulfanyl-acetamide] | 156 to 159 °C | – | ≥ 60% | ≥ 60% | ≥ 60% | ≥ 60% | ≥ 60% | ≥ 60% | – | – | – | – | – | – | – | – | –
CCC(Oc1ccc2ncc(Br)cc2c1)C(=O)NC(C)(C#N)C=NOC (centres unmarked) [Compound No. 60, 2-(3-Bromo-quinolin-6-yloxy)-N-(1-cyano-2-methoxyimino-1-methyl-ethyl)-butyramide] | 152 to 155 °C | ≥ 60% | ≥ 60% | – | ≥ 60% | ≥ 60% | – | – | – | – | – | – | – | – | – | – | –
C#Cc1cnc2ccc(OC(OC)C(=O)NC(C)(C)C=NOC)cc2c1 (centres unmarked) [Compound No. 76, 2-(3-Ethynyl-quinolin-6-yloxy)-2-methoxy-N-(2-methoxyimino-1,1-dimethyl-ethyl)-acetamide] | – | – | – | – | – | ≥ 60% | ≥ 60% | – | ≥ 60% | ≥ 60% | ≥ 60% | ≥ 60% | ≥ 60% | ≥ 60% | ≥ 60% | – | –
C#Cc1cnc2ccc(OC(SC)C(=O)NC(C)(C=NOC)COC)cc2c1 (centres unmarked) [Compound No. 65, 2-(3-Ethynyl-quinolin-6-yloxy)-N-(2-methoxyimino-1-methoxymethyl-1-methyl-ethyl)-2-methylsulfanyl-acetamide] | – | ≥ 60% | ≥ 60% | ≥ 60% | ≥ 60% | ≥ 60% | ≥ 60% | ≥ 60% | – | – | – | – | – | – | – | ≥ 60% | ≥ 60%
CON=CC(C)(C)NC(=O)C(Oc1cc(C)c2ncncc2c1)SC (centres unmarked) [Compound No. 91, N-(2-Methoxyimino-1,1-dimethyl-ethyl)-2-(8-methyl-quinazolin-6-yloxy)-2-methylsulfanyl-acetamide] | 109 to 112 °C | ≥ 60% | – | ≥ 60% | ≥ 60% | ≥ 60% | – | – | – | – | – | – | – | – | – | – | –
COCC(C)(C=NOC)NC(=O)C(Oc1ccc2ncc(Br)cc2c1)SC (centres unmarked) [Compound No. 64, 2-(3-Bromo-quinolin-6-yloxy)-N-[2-methoxy-1-(methoxyimino-methyl)-1-methyl-ethyl]-2-methylsulfanyl-acetamide] | – | ≥ 60% | ≥ 60% | ≥ 60% | ≥ 60% | ≥ 60% | ≥ 60% | ≥ 60% | – | – | – | – | – | – | – | ≥ 60% | ≥ 60%
